In US20070117743A1, “New antitumoral compounds” (priority 2003, published 2007):

Tests used:
Format in all cases: cell-based, human
A-549 = assay: SRB colorimetric assay of cell growth and viability, A-549; conditions: 48 hours exposure, SRB; for GI50: read-out: GI50 A-549; for CC50: read-out: LC50 A-549
SK-MEL-28 = assay: SRB colorimetric assay of cell growth and viability, SK-MEL-28; conditions: 48 hours exposure, SRB; for CC50: read-out: LC50 MEL-28
HT-29 = assay: SRB colorimetric assay of cell growth and viability, HT-29; conditions: 48 hours exposure, SRB; for GI50: read-out: GI50 HT-29; for CC50: read-out: LC50 HT-29
LoVo = assay: SRB colorimetric assay of cell growth and viability, LoVo; conditions: 48 hours exposure, SRB; for CC50: read-out: LC50 LOVO
LoVo-Dox = assay: SRB colorimetric assay of cell growth and viability, LoVo-Dox; conditions: 48 hours exposure, SRB; for CC50: read-out: LC50 LOVO-DOX
Procedure, shortened: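 Absorbance at 490 nm of Tris-solubilized sulforhodamine B gives the read-out after cells are fixed with cold 50% TCA for 60 min at 4° C. Compound exposure lasts 48 hours over 10 to 10^−8 μg/mL. Growth inhibition, total growth inhibition and lethal concentration are calculated from triplicate wells.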

DU-145 = assay: SRB colorimetric assay of cell growth and viability, DU-145; conditions: 48 hours exposure, SRB
LNCaP = assay: SRB colorimetric assay of cell growth and viability, LNCaP; conditions: 48 hours exposure, SRB; for GI50: read-out: GI50 LN-caP; for CC50: read-out: LC50 LN-caP
SK-BR-3 = assay: SRB colorimetric assay of cell growth and viability, SK-BR-3; conditions: 48 hours exposure, SRB
IGROV-1 = assay: SRB colorimetric assay of cell growth and viability, IGROV-1; conditions: 48 hours exposure, SRB
IGROV-ET = assay: SRB colorimetric assay of cell growth and viability, IGROV-ET; conditions: 48 hours exposure, SRB; for CC50: read-out: LC50 IGROV-ET
HeLa = assay: SRB colorimetric assay of cell growth and viability, HeLa; conditions: 48 hours exposure, SRB; for CC50: read-out: LC50 HELA
HeLa-APL = assay: SRB colorimetric assay of cell growth and viability, HeLa-APL; conditions: 48 hours exposure, SRB; for CC50: read-out: LC50 HELA-APL
PANC-1 = assay: SRB colorimetric assay of cell growth and viability, PANC-1; conditions: 48 hours exposure, SRB; for CC50: read-out: LC50 PANC-1

SMILES | TGI A-549 (A-549) [Molar] | GI50 (A-549) [nM] | CC50 (A-549) [nM] | GI50 (SK-MEL-28) [nM] | TGI MEL-28 (SK-MEL-28) [Molar] | CC50 (SK-MEL-28) [nM] | TGI HT-29 (HT-29) [Molar] | GI50 (HT-29) [nM] | CC50 (HT-29) [nM] | GI50 (LoVo) [nM] | TGI LOVO (LoVo) [Molar] | CC50 (LoVo) [nM] | GI50 (LoVo-Dox) [nM] | TGI LOVO-DOX (LoVo-Dox) [Molar] | CC50 (LoVo-Dox) [nM] | GI50 (DU-145) [nM] | LC50 (concentration causing 50% net cell kill) (DU-145) [nM] | TGI DU-145 (DU-145) [Molar] | TGI LN-caP (LNCaP) [Molar] | GI50 (LNCaP) [nM] | further results
C/C=C1\NC(=O)[C@H](Cc2c(F)c(F)c(F)c(F)c2F)NC(=O)[C@@H](C(C)C)NC(=O)[C@@H]([C@@H](C)CC)NC(=O)[C@H](NC(=O)[C@H](NC(=O)[C@H](CCCN)NC(=O)[C@H]2CCCN2C(=O)[C@H](NC(=O)[C@@H](NC(=O)[C@@H](NC(=O)[C@H](NC(=O)CC[C@@H](C)CC)C(C)C)[C@@H](C)O)C(C)C)C(C)C)[C@@H](C)CC)[C@@H](C)OC(=O)[C@H](C(C)C)NC1=O [Compound 71, [Phe(F5)^3, (4S)-MeHex^14]-KF] | 2.62E−06 | 1750 | 3920 | 1520 | 2.40E−06 | 3800 | 9.82E−07 | 330 | 267 | 166 | 2.77E−07 | 462 | 184 | 2.90E−07 | 456 | 1220 | 3640 | 2.11E−06 | 1.12E−06 | 394 | CC50 (LNCaP): 2700 nM; GI50 (SK-BR-3): 228 nM; LC50 (SK-BR-3): 554 nM; TGI SK-BR-3 (SK-BR-3): 3.56E−07 Molar; GI50 (IGROV-1): 526 nM; LC50 (concentration causing 50% net cell killing) (IGROV-1): 2720 nM; TGI IGROV (IGROV-1): 1.21E−06 Molar; GI50 (IGROV-ET): 443 nM; TGI IGROV-ET (IGROV-ET): 5.35E−07 Molar; CC50 (IGROV-ET): 848 nM; GI50 (HeLa): 836 nM; TGI HELA (HeLa): 1.63E−06 Molar; CC50 (HeLa): 3160 nM; GI50 (HeLa-APL): 1330 nM; TGI HELA-APL (HeLa-APL): 2.22E−06 Molar; CC50 (HeLa-APL): 3700 nM; GI50 (PANC-1): 1560 nM; TGI PANC-1 (PANC-1): 4.41E−06 Molar; CC50 (PANC-1): 6380 nM
C/C=C1\NC(=O)[C@H](Cc2ccc(I)cc2)NC(=O)[C@@H](C(C)C)NC(=O)[C@@H]([C@@H](C)CC)NC(=O)[C@H](NC(=O)[C@H](NC(=O)[C@H](CCCN)NC(=O)[C@H]2CCCN2C(=O)[C@H](NC(=O)[C@@H](NC(=O)[C@@H](NC(=O)[C@H](NC(=O)CC[C@@H](C)CC)C(C)C)[C@@H](C)O)C(C)C)C(C)C)[C@@H](C)CC)[C@@H](C)OC(=O)[C@H](C(C)C)NC1=O [Compound 72, [Phe(4-I)^3, (4S)-MeHex^14]-KF] | 3.47E−07 | 214 | 559 | 190 | 4.05E−07 | 1200 | 2.30E−07 | 120 | 441 | 129 | 2.35E−07 | 428 | 49.8 | 1.23E−07 | 274 | 132 | 425 | 2.37E−07 | 8.42E−07 | 270 | CC50 (LNCaP): 2380 nM; GI50 (SK-BR-3): 125 nM; LC50 (SK-BR-3): 416 nM; TGI SK-BR-3 (SK-BR-3): 2.28E−07 Molar; GI50 (IGROV-1): 170 nM; LC50 (concentration causing 50% net cell killing) (IGROV-1): 443 nM; TGI IGROV (IGROV-1): 2.74E−07 Molar; GI50 (IGROV-ET): 259 nM; TGI IGROV-ET (IGROV-ET): 3.84E−07 Molar; CC50 (IGROV-ET): 570 nM; GI50 (HeLa): 133 nM; TGI HELA (HeLa): 2.24E−07 Molar; CC50 (HeLa): 379 nM; GI50 (HeLa-APL): 287 nM; TGI HELA-APL (HeLa-APL): 7.73E−07 Molar; CC50 (HeLa-APL): 2280 nM; GI50 (PANC-1): 885 nM; TGI PANC-1 (PANC-1): 1.68E−06 Molar; CC50 (PANC-1): 3200 nM
C/C=C1\NC(=O)[C@H](Cc2ccc([N+](=O)[O-])cc2)NC(=O)[C@@H](C(C)C)NC(=O)[C@@H]([C@@H](C)CC)NC(=O)[C@H](NC(=O)[C@H](NC(=O)[C@H](CCCN)NC(=O)[C@H]2CCCN2C(=O)[C@H](NC(=O)[C@@H](NC(=O)[C@@H](NC(=O)[C@H](NC(=O)CC[C@@H](C)CC)C(C)C)[C@@H](C)O)C(C)C)C(C)C)[C@@H](C)CC)[C@@H](C)OC(=O)[C@H](C(C)C)NC1=O [Compound 73, [Phe(4-NO2)^3, (4S)-MeHex^14]-KF] | 1.24E−06 | 532 | 2760 | 223 | 4.71E−07 | 1480 | 2.32E−07 | 127 | 426 | 112 | 2.04E−07 | 372 | 33.5 | 9.46E−08 | 255 | 233 | 2040 | 6.57E−07 | 8.41E−07 | 377 | CC50 (LNCaP): 2320 nM; GI50 (SK-BR-3): 150 nM; LC50 (SK-BR-3): 574 nM; TGI SK-BR-3 (SK-BR-3): 2.94E−07 Molar; GI50 (IGROV-1): 173 nM; LC50 (concentration causing 50% net cell killing) (IGROV-1): 488 nM; TGI IGROV (IGROV-1): 2.90E−07 Molar; GI50 (IGROV-ET): 229 nM; TGI IGROV-ET (IGROV-ET): 3.26E−07 Molar; CC50 (IGROV-ET): 467 nM; GI50 (HeLa): 173 nM; TGI HELA (HeLa): 2.80E−07 Molar; CC50 (HeLa): 450 nM; GI50 (HeLa-APL): 521 nM; TGI HELA-APL (HeLa-APL): 1.30E−06 Molar; CC50 (HeLa-APL): 2950 nM; GI50 (PANC-1): 952 nM; TGI PANC-1 (PANC-1): 1.85E−06 Molar; CC50 (PANC-1): 3580 nM
